# Data: US20070297980A1, “Geldanamycin and Derivatives Inhibit Cancer Invasion and Identify Novel Targets” (priority 2004, published 2007)
# “Also recorded” adds a separate entry of the source.
# Legend:
# HSP90α = test: GA-affinity bead pull-down (solid-phase binding assay); settings: MDCK and DBTRG lysates
# [1] = system: HGF/SF-induced MDCK cell scattering; test: Scatter assay, MDCK cells; format: cell-based, canine
# Experimental: (§1) Scatter Assay. In parallel with assessing uPA activity, 96-well plates of MDCK cells were used to detect cell scattering. Cell preparation was same as above (plasmin assay) described above. At the same time as uPA activity was measured, the cells being assayed for scatter were fixed, stained (Diff-Quik Set, Dade Behring AG) and photographed.
# [2] = system: HGF/SF-induced uPA-plasmin activity in MDCK cells; test: HGF/SF-Met-uPA-plasmin cell-based assay, MDCK cells; design: species or system canine; settings: for concentration level at which HGF/SF-induced uPA activity is inhibited: words
# Experimental: Cells were seeded in 96-well plates at 1500 cells/well (with the exception of SK-LMS-1 cells, which were seeded at 5000 cells/well) in order to detect color intensity, either with MTS (Promega) for cell growth determination or via Chromozyme PL (Boehringer Mannheim) for uPA-plasmin activity measurement. Cells were grown overnight in DMEM/10% FBS as described previously. Drugs were dissolved in DMSO and serially diluted from stock concentrations into DMEM/10% FBS medium and added to the appropriate wells. Immediately after drug or reagent addition, HGF/SF (60 ng/ml) was added to all wells (with the exception of wells used as controls to calculate basal growth and uPA-plasmin activity levels). Twenty-four hours after drug and HGF/SF addition, plates were processed for the determination of uPA-plasmin activity as follows: Wells were washed twice with DMEM (without phenol red; Life Technologies, Inc.), and 200 μl of reaction buffer [50% (v/v) 0.05 units/ml plasminogen in DMEM (without phenol red), 40% (v/v) 50 mM Tris buffer (pH 8.2), and 10% (v/v) 3 mM Chromozyme PL (Boehringer Mannheim) in 100 mM glycine solution] were added to each well.
# MDCK cells = test: Long-term culture of MDCK cells in macbecin II; format: cell-based, canine
# Experimental: All compounds were first diluted in DMSO at 0.01M, separated into small stock aliquots (5 μl) and kept at −80° C. until use. When used, stocks were thawed and serially diluted with DMEM/10% FBS. For long term culture with MA, conditioned medium with the compound at 1, 2, or 3×10^−6 M was changed at least twice a week.
# HSP90α expression = test: Western blot, HSP90α expression; format: cell-based; settings: MDCK and DBTRG cells
# Experimental: (§2) Western Blot and Expression of Met and other Proteins. Cells were seeded in 60×15 mm dishes at 10^5 cells per dish. HGF/SF (100 ng/ml) was added to each dish 24 hr later. Immediately thereafter, serially diluted GA or MA was added to the relevant dishes at the concentrations indicated, and incubated for the indicated length of time before lysis. For Met and MAPK phosphorylation detection, 10^5 cells were seeded in 60×15 mm dishes and serum-starved for 24 hrs. After HGF/SF (100 ng/ml) stimulation, cells were lysed at 10 and 30 min. Control cells were not given HGF/SF. After cell lysis, protein concentration was determined by DC protein assay (Bio-Rad), and equal quantities of protein were loaded and separated by SDS-PAGE and transferred in a Western blot to PVDF membranes (Invitrogen). After blocking with 5% dry milk, membranes were blotted with specific antibodies.
# After cells grew to 80% confluence, GA or MA, at various concentrations was added to the dishes. After 24 hours, cells were washed twice with PBS and lysed in TNESV buffer supplemented with Complete™ proteinase inhibitors (Roche Molecular Biochemicals). Protein concentration was determined by DC protein assay. Equal quantities of protein were used for Western blotting for Met and HSP90α. […]
# [3] = system: cell proliferation (DBTRG, U373, SNB19 cells); test: Proliferation assay (MTS); format: cell-based, human; settings: cell line not stated
# Experimental: Proliferation Assay. In parallel with uPA-plasmin detection assay, cell proliferation in 96-well plates was detected with MTS. […] The plates were then incubated at 37° C., in a 5% CO2 atmosphere for 4 h. The absorbance was read on an automated spectrophotometric plate reader at 490 nm.
# Met expression = test: Western blot, Met expression; format: cell-based; design: effect on Met expression: dose or concentration left out as unconfirmed; settings: for Met abundance upon acute challenge: 24 hrs, MDCKG1-G3 cells chronically exposed to MA; for effect on Met expression: MDCK and DBTRG cells
# Experimental: as §2
# After cells grew to 80% confluence, GA or MA, at various concentrations was added to the dishes. After 24 hours, cells were washed twice with PBS and lysed in TNESV buffer supplemented with Complete™ proteinase inhibitors (Roche Molecular Biochemicals). Protein concentration was determined by DC protein assay. Equal quantities of protein were used for Western blotting for Met and HSP90α. For pull-down assays, 20 μl of control or GA beads adjusted for equal concentrations were added to […] of extract and rotated at 4° C. overnight. Beads were recovered by low speed centrifugation and washed 3× with TNESV. Sixty μl 2× sample buffer was added to beads and boiled for 10 min. The samples were subjected to SDS-PAGE followed by Western blot analysis.
# [4] = system: HGF/SF-induced cell scattering in MDCKG3 cells; test: Scatter assay, MDCKG3 cells (maintained in MA); format: cell-based, canine; settings: MDCKG3 cells maintained in 3×10^−6 M MA; GA tested 10^−7 to 10^−15 M
# Experimental: as §1
# [5] = system: HGF/SF-induced Matrigel invasion by DBTRG cells; test: In vitro Matrigel invasion assay, DBTRG; format: cell-based, human; settings: even at pM-fM concentrations
# Experimental: (§3) In Vitro Cell Invasion Assay. The in vitro invasion assay was performed as previously described by Jeffers et al., 1996, using a 24-well invasion chamber coated with GFR-Matrigel® (Becton Dickinson). Cells were suspended in DMEM/0.1% BSA and were plated in the invasion (upper) chamber (5−25×10^3 cells/well) (DBTRG 5,000, SNB19 and U373 25,000 cells/well). The lower chamber was filled with DMEM/0.1% BSA with or without the addition of HGF/SF (100 ng/ml). To evaluate GA inhibition, GA was serially diluted into both the upper and lower chambers at final concentrations 1 μM, to 1 fM as indicated and immediately after HGF/SF addition. After 24 h, cells remaining in the upper chamber were removed by scraping. The cells that invaded through the Matrigel® and attached to the lower surface of the insert were stained using Diff-Quik (Dade Behring Inc.) and counted under a light microscope.
# [6] = system: HGF/SF-induced Matrigel invasion by U373 cells; test: In vitro Matrigel invasion assay, U373; format: cell-based, human; settings: even at pM-fM concentrations
# Experimental: as §3
# [7] = system: HGF/SF-induced Matrigel invasion by SNB19 cells; test: In vitro Matrigel invasion assay, SNB19; format: cell-based, human; settings: even at pM-fM concentrations
# Experimental: as §3
# [8] = system: uPA activity in SNB19 cells; test: HGF/SF induction of uPA activity, SNB19 cells; format: cell-based, human; settings: peak uPA induction after HGF/SF to basal
# Experimental: (§4) HGF/SF-Met-uPA-Plasmin Cell-Based Assay (Webb et al., supra). Cells were seeded in 96-well plates at 1500 cells/well (with the exception of SK-LMS-1 cells, which were seeded at 5000 cells/well) in order to detect color intensity, either with MTS (Promega) for cell growth determination or via Chromozyme PL (Boehringer Mannheim) for uPA-plasmin activity measurement. Cells were grown overnight in DMEM/10% FBS as described previously. Drugs were dissolved in DMSO and serially diluted from stock concentrations into DMEM/10% FBS medium and added to the appropriate wells. Immediately after drug or reagent addition, HGF/SF (60 ng/ml) was added to all wells (with the exception of wells used as controls to calculate basal growth and uPA-plasmin activity levels). Twenty-four hours after drug and HGF/SF addition, plates were processed for the determination of uPA-plasmin activity as follows: Wells were washed twice with DMEM (without phenol red; Life Technologies, Inc.), and 200 μl of reaction buffer [50% (v/v) 0.05 units/ml plasminogen in DMEM (without phenol red), 40% (v/v) 50 mM Tris buffer (pH 8.2), and 10% (v/v) 3 mM Chromozyme PL (Boehringer Mannheim) in 100 mM glycine solution] were added to each well. […]
# [9] = system: HGF/SF-induced uPA activity in U373 cells; test: HGF/SF-Met-uPA-plasmin cell-based assay, U373 cells; design: species or system human
# Experimental: as §4
# [10] = system: uPA activity in U118 cells; test: HGF/SF induction of uPA activity, U118 cells; format: cell-based, human; settings: peak uPA induction after HGF/SF to basal
# Experimental: as §4
# [11] = system: uPA activity in SK-LMS-1 cells; test: HGF/SF induction of uPA activity, SK-LMS-1 cells; format: cell-based, human; settings: peak uPA induction after HGF/SF to basal
# Experimental: (§5) Cells were seeded in 96-well plates at 1500 cells/well (with the exception of SK-LMS-1 cells, which were seeded at 5000 cells/well) in order to detect color intensity, either with MTS (Promega) for cell growth determination or via Chromozyme PL (Boehringer Mannheim) for uPA-plasmin activity measurement. Cells were grown overnight in DMEM/10% FBS as described previously. Drugs were dissolved in DMSO and serially diluted from stock concentrations into DMEM/10% FBS medium and added to the appropriate wells. Immediately after drug or reagent addition, HGF/SF (60 ng/ml) was added to all wells (with the exception of wells used as controls to calculate basal growth and uPA-plasmin activity levels). Twenty-four hours after drug and HGF/SF addition, plates were processed for the determination of uPA-plasmin activity as follows: Wells were washed twice with DMEM (without phenol red; Life Technologies, Inc.), and 200 μl of reaction buffer [50% (v/v) 0.05 units/ml plasminogen in DMEM (without phenol red), 40% (v/v) 50 mM Tris buffer (pH 8.2), and 10% (v/v) 3 mM Chromozyme PL (Boehringer Mannheim) in 100 mM glycine solution] were added to each well. […]
# [12] = system: uPA activity in PC-3 cells; test: HGF/SF induction of uPA activity, PC-3 cells; format: cell-based, human; settings: peak uPA induction after HGF/SF to basal
# Experimental: as §4
# [13] = system: uPA activity in DU145 cells; test: HGF/SF induction of uPA activity, DU145 cells; format: cell-based, human; settings: peak uPA induction after HGF/SF to basal
# Experimental: as §5
# [14] = system: uPA activity in DBTRG cells; test: HGF/SF induction of uPA activity, DBTRG cells; format: cell-based, human; settings: peak uPA induction after HGF/SF to basal
# Experimental: as §4
# [15] = system: uPA activity in SW1874 cells; test: HGF/SF induction of uPA activity, SW1874 cells; format: cell-based, human; settings: peak uPA induction after HGF/SF to basal
# Experimental: as §5
# [16] = system: uPA activity in U87 cells; test: HGF/SF induction of uPA activity, U87 cells; format: cell-based, human; settings: peak uPA induction after HGF/SF to basal
# Experimental: as §5
# [17] = Egorin M J et al., 2002; cited from earlier work
# [18] = preliminary reports; Neckers et al; Sausville et al; cited from earlier work
molecule,measurement,setting,value
"COC1CC(C)C(OC)c2cc(O)cc(c2O)NC(=O)/C(C)=C\C=C/C(C)C(OC(N)=O)/C(C)=C\C(C)C1OC (centres unmarked) [Compound 21, Macbecin II, reference compound]",total HSP90α recovered with GA-affinity beads,HSP90α; cells treated with 10^−5 M MA,negligible levels
same,HSP90α available to the GA affinity beads,HSP90α; cells treated with 10^−6 M MA,reduced
same,effect on HGF/SF-induced scattering of MDCK cells,[1]; 3×10^−6 M MA,effectively blocked
same,activity in HGF/SF-induced uPA-plasmin cell-based assays (words),[2]; MDCK cells,inactive
same,activity in HGF/SF-induced uPA-plasmin cell-based assays (words),"[2]; MDCK cells, listed as macbecin II",poor activity
same,concentration level at which HGF/SF-induced uPA activity is inhibited,[2],only at nM or higher concentrations
same,highest non-toxic concentration,MDCK cells; MDCK cells maintained for several months,3 µM
same,MA concentration up to which MDCK cells continued to proliferate,MDCK cells; long-term culture,≤ 3 µM
same,effect on HSP90α expression,HSP90α expression,up-regulation
same,concentration level at which proliferation is inhibited,[3],nM levels
same,Met abundance upon acute challenge,Met expression; 10^−5 M MA,less of a decrease
same,effect on Met expression,Met expression; at MA,downregulation
"COC1=C2C[C@@H](C)C[C@H](OC)[C@H](O)[C@@H](C)/C=C(\C)[C@H](OC(N)=O)[C@@H](OC)/C=C\C=C(/C)C(=O)NC(=CC1=O)C2=O [Compound 1, (+)-Geldanamycin]",GA concentration at which scattering was again fully observed,[4],10^−15 M
same,activity in HGF/SF-induced uPA-plasmin cell-based assays (words),[2]; MDCK cells,active
same,effect on HGF/SF-induced Matrigel invasion,[5],abolished
same,effect on HGF/SF-induced Matrigel invasion,[6],abolished
same,effect on HGF/SF-induced Matrigel invasion,[7],abolished
same,Met abundance upon acute challenge,Met expression; 10^−6 M GA,dramatic decreases
same,effect on Met expression,Met expression; GA at nM levels,downregulates
"C[C@@H]1C[C@H]2O[C@@H]2/C=C\C=C\C(=O)Cc2c(Cl)c(O)cc(O)c2C(=O)O1 [Compound 3, Radicicol, reference compound]",activity in HGF/SF-induced uPA-plasmin cell-based assays (words),[2]; MDCK cells,poor activity; also recorded: inactive
same,concentration level at which HGF/SF-induced uPA activity is inhibited,[2],only at nanomolar levels
same,concentration level at which HGF/SF-induced uPA activity is inhibited,[2]; listed as RA,only at nM or higher concentrations
"CO[C@H]1/C=C\C=C(/C)C(=O)NC2=CC(=O)C(N3CCC3)=C(C[C@@H](C)C[C@H](OC)[C@H](O)[C@@H](C)/C=C(\C)[C@@H]1O)C2=O [Compound 19, 17-(1-Azetidinyl)-7-decarbamyl-17-demethoxygeldanamycin]",activity in HGF/SF-induced uPA-plasmin cell-based assays (words),[2]; MDCK cells,completely inactive
"HGF/SF: hepatocyte growth factor/scatter factor, ligand of the Met receptor tyrosine kinase",uPA activity induction (fold),[8],1.95 fold
same,uPA activity induction (fold),"[2]; MDCK, peak uPA induction after HGF/SF (0-60 ng/ml, 24 h) to basal",4.27 fold
same,uPA activity induction (fold),"[9]; U373, peak uPA induction after HGF/SF to basal",1.56 fold
same,uPA activity induction (fold),[10],1.12 fold
same,uPA activity induction (fold),[11],2.01 fold
same,uPA activity induction (fold),[12],1.00 fold
same,uPA activity induction (fold),[13],1.06 fold
same,uPA activity induction (fold),[14],2.28 fold
same,uPA activity induction (fold),[15],0.97 fold
same,uPA activity induction (fold),[16],1.04 fold
"CO[C@H]1[C@@H](OC)C[C@H](C)[C@@H](OC)C2=CC(=O)C=C(NC(=O)/C(C)=C/C=C\[C@H](C)[C@@H](OC(N)=O)/C(C)=C/[C@@H]1C)C2=O [Compound 2, Macbecin I, reference compound]",activity in HGF/SF-induced uPA-plasmin cell-based assays (words),[2]; MDCK cells,inactive
same,activity in HGF/SF-induced uPA-plasmin cell-based assays (words),"[2]; MDCK cells, listed as macbecin I",poor activity
"COC1/C=C\C=C(/C)C(=O)NC2=CC(=O)C(NCCN(C)C)=C(C[C@@H](C)C[C@H](OC)[C@H](O)[C@@H](C)/C=C(\C)[C@@H]1OC(N)=O)C2=O (some centres unmarked) [Compound 5, 17-(2-Dimethylaminoethyl)amino-17-demethoxygeldanamycin]","quantity not named in the sentence (""was essentially 100% when given i.p."")",[17],~100%
"C=CCNC1=C2C[C@@H](C)C[C@H](OC)[C@H](O)[C@@H](C)/C=C(\C)[C@H](OC(N)=O)[C@@H](OC)/C=C\C=C(/C)C(=O)NC(=CC1=O)C2=O [Compound 4, 17-Allylamino-17-demethoxygeldanamycin]",concentration range inhibiting HGF/SF-induced MDCK cell scattering,[1]; FIG. 10,pM to fM range
same,lowest concentration at which inhibitory effects on uPA activity observed,[2]; MDCK cells,10^−17 M
same,activity in HGF/SF-induced uPA-plasmin cell-based assays (words),[2]; MDCK cells,active
same,hepatic toxicity in clinical investigations,[18],dose-limiting
same,lowest concentration at which inhibitory effects on uPA activity observed,[9]; U373 cells,10^−17 M
"CO[C@H]1/C=C\C=C(/C)C(=O)NC2=CC(=O)C(N3CCC3)=C(C[C@@H](C)C[C@H](OC)[C@H](OC(C)=O)[C@@H](C)/C=C(\C)[C@@H]1OC(N)=O)C2=O [Compound 18, 11-O-Acetyl-17-(1-azetidinyl)-17-demethoxygeldanamycin]",activity in HGF/SF-induced uPA-plasmin cell-based assays (words),[2]; MDCK cells,inactive
"CO[C@H]1/C=C\C=C(/C)C(=O)NC2=CC(=O)C(N3CCC3)=C(C[C@@H](C)C[C@H](OC)[C@H](O)[C@@H](C)/C=C(\C)[C@@H]1OC(N)=O)C2=O [Compound 14, 17-(1-Azetidinyl)-17-demethoxygeldanamycin]",activity in HGF/SF-induced uPA-plasmin cell-based assays (words),[2]; MDCK cells,active
"COc1c(O)cc2c(O)c1C[C@@H](C)C[C@H](OC)[C@H](O)[C@@H](C)/C=C(\C)[C@H](OC(N)=O)[C@@H](OC)/C=C\C=C(/C)C(=O)N2 [Compound 20, 17,21-Dihydrogeldanamycin]",activity in HGF/SF-induced uPA-plasmin cell-based assays (words),[2]; MDCK cells,active
